From ChEMBL document CHEMBL4837259, “Comprehensive Approach of 19F Nuclear Magnetic Resonance, Enzymatic, and In Silico Methods for Site-Specific Hit Selection and Validation of Fragment Molecules that Inhibit Methionine γ-Lyase Activity” (J Med Chem, 2021)
Activity calls are given as the source filed them. The calls are words filed in the database; no cut-off is given here.

Key:
[1] = target: T1, L-methionine gamma-lyase (Fusobacterium nucleatum subsp. nucleatum) (UniProt Q8RDT4); test: Inhibition of Fusobacterium nucleatum ATCC 25586 recombinant wild type MGL expressed in Escherichia coli BL21 (DE3) assessed as decrease in signal intensity by 19F NMR based competition assay relative to control; design: concentration or dose not given beside the values
T1 sequence (whole entry): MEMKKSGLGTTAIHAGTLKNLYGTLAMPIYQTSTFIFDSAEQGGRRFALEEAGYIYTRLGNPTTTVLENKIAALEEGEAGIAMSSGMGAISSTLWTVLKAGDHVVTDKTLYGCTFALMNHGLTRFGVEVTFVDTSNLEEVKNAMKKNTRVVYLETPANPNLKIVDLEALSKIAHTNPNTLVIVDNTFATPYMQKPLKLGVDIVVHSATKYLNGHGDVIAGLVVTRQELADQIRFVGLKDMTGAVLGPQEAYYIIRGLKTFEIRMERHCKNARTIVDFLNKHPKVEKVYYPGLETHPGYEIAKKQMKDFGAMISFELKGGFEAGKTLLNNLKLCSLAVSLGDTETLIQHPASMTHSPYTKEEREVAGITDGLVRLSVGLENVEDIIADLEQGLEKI

Fusobacterium nucleatum [2] = test: Inhibition of Fusobacterium nucleatum ATCC 25586 recombinant MGL Y111F mutant expressed in Escherichia coli BL21 (DE3) assessed as decrease in signal intensity by measuring recovery ratio by 19F NMR based competition assay relative to wild type; design: concentration or dose not given beside the values
Fusobacterium nucleatum [3] = test: Inhibition of Fusobacterium nucleatum ATCC 25586 recombinant MGL R373K mutant expressed in Escherichia coli BL21 (DE3) assessed as decrease in signal intensity by measuring recovery ratio by 19F NMR based competition assay relative to wild type; design: concentration or dose not given beside the values
Fusobacterium nucleatum [4] = test: Inhibition of Fusobacterium nucleatum ATCC 25586 recombinant MGL K238A mutant expressed in Escherichia coli BL21 (DE3) assessed as decrease in signal intensity by measuring recovery ratio by 19F NMR based competition assay relative to wild type; design: concentration or dose not given beside the values
[5] = target: T1, L-methionine gamma-lyase (Fusobacterium nucleatum subsp. nucleatum); test: Inhibition of Fusobacterium nucleatum ATCC 25586 recombinant wild type MGL expressed in Escherichia coli BL21 (DE3) assessed as formation of 2-ketobutyrate using L-methionine as substrate by enzymatic assay; design: concentration or dose not given beside the values; settings: concentration not given here
Fusobacterium nucleatum [6] = test: Inhibition of Fusobacterium nucleatum ATCC 25586 recombinant MGL R58A mutant expressed in Escherichia coli BL21 (DE3) assessed as decrease in signal intensity by measuring recovery ratio by 19F NMR based competition assay relative to wild type; design: scale not given: the % may be the effect or the level left
Fusobacterium nucleatum [7] = test: Inhibition of Fusobacterium nucleatum ATCC 25586 recombinant MGL Y56F mutant expressed in Escherichia coli BL21 (DE3) assessed as decrease in signal intensity by measuring recovery ratio by 19F NMR based competition assay relative to wild type; design: concentration or dose not given beside the values
Fusobacterium nucleatum [8] = test: Inhibition of Fusobacterium nucleatum ATCC 25586 recombinant MGL R373A mutant expressed in Escherichia coli BL21 (DE3) assessed as decrease in signal intensity by measuring recovery ratio by 19F NMR based competition assay relative to wild type; design: scale not given: the % may be the effect or the level left
Fusobacterium nucleatum [9] = test: Inhibition of Fusobacterium nucleatum ATCC 25586 recombinant MGL R58K mutant expressed in Escherichia coli BL21 (DE3) assessed as decrease in signal intensity by measuring recovery ratio by 19F NMR based competition assay relative to wild type; design: scale not given: the % may be the effect or the level left
Fusobacterium nucleatum [10] = test: Inhibition of Fusobacterium nucleatum ATCC 25586 recombinant MGL C113S mutant expressed in Escherichia coli BL21 (DE3) assessed as decrease in signal intensity by measuring recovery ratio by 19F NMR based competition assay relative to wild type; design: scale not given: the % may be the effect or the level left

Row | Compound | Activity [1] [%] | Activity (Fusobacterium nucleatum [2]) | Activity (Fusobacterium nucleatum [3]) | Activity (Fusobacterium nucleatum [4]) | inhibition [5] [%] | Activity (Fusobacterium nucleatum [6]) | Activity (Fusobacterium nucleatum [7]) [%] | Activity (Fusobacterium nucleatum [8]) | Activity (Fusobacterium nucleatum [9]) | Activity (Fusobacterium nucleatum [10])
1 | CC(C)(C)OC(=O)N1CCC(CN)(c2ccc(F)cc2)CC1 | 20 | 50% | Active | 50% | 12.9 | 50% | 80 | Active | 50% | Active
2 | O=C(O)c1cn(-c2cccc(F)c2)cn1 | 36 | inactive | inactive | inactive | -4.1 | 80% | 80 | 80% | 80% | Active
3 | Nc1cc(F)c(OCC2CCC2)c(F)c1 | 55 | Active | inactive | 50% | 11.6 | Active | 80 | inactive | 50% | 50%
4 | CC(C)(C)OC(=O)N1CCC(CN)(Cc2ccc(F)cc2)CC1 | 70 | inactive | Active | inactive | 27.7 | Active | 80 | Active | 50% | 50%
5 | CC(C)(Cc1cccc(C(F)(F)F)c1)C(=O)O | 64 | 50% | Active | 50% | 27.5 | 80% | 80 | 80% | 80% | Active
6 | O=C(O)c1ccc(OCC(F)(F)F)cn1 | 40 | 80% | Active | 50% | 15 | 80% | 80 | 80% | 80% | 80%
7 | COCCOc1ccc(C(=O)O)cc1C(F)(F)F | 67 | 80% | 50% | Active | 16.2 | 80% | 80 | 80% | 80% | 50%
8 | CC(C)(C)OC(=O)N1CCC(CN)(c2ccccc2C(F)(F)F)CC1 | 75 | Active | Active | 50% | 41 | Active | 80 | Active | 80% | 50%
9 | CC(C)(CC(=O)O)c1ccc(C(F)(F)F)cc1 | 62 | 80% | Active | 50% | 11.3 | 80% | 80 | 50% | 80% | Active
10 | O=C(O)c1cn(-c2ccc(C(F)(F)F)cc2)cn1 | 87 | 50% | Active | Active | 45.3 | 50% | 80 | 80% | 80% | Active
11 | Cc1ccc2[nH]cc(C(C(=O)O)C(F)(F)F)c2c1 (stereo not given) | 48 | 80% | Active | Active | 9.3 | 80% | 80 | 50% | 80% | inactive
12 | CC(C)(C)OC(=O)N1CCC(CN)(c2ccccc2F)CC1 | 77 | Active | Active | Active | 17.2 | 50% | 80 | inactive | 50% | 50%
13 | CC(C)(C)OC(=O)N[C@H]1CC[C@H](N2Cc3cccc(F)c3C2=O)CC1 | 100 | Active | Active | Active | 53.7 | Active | 50 | Active | Active | Active
